EC and Activity data for 5 molecules are collected here from ChEMBL document CHEMBL2010711, “Synthesis and comparative evaluation of 4-oxa- and 4-aza-podophyllotoxins as antiproliferative microtubule destabilizing agents” (Bioorg Med Chem Lett, 2012).

For experiment [1], the system named is Paracentrotus lividus. The experiment is described as follows: Antimitotic activity against Paracentrotus lividus embryo assessed as concentration required to cause 100% cleavage arrest after 2.5 to 6 hrs. It counts as functional.
Experiment [2] has as its system Paracentrotus lividus. Briefly: Microtubule destabilizing activity in Paracentrotus lividus embryo assessed as concentration required to cause 100% embryo spinning after 15 mins to 20 hrs. The class given is functional.
The subject of experiment [3] is Paracentrotus lividus. Briefly: Antimitotic activity against Paracentrotus lividus embryo assessed as concentration required to cause 100% cleavage alteration after 2.5 to 6 hrs. It counts as functional.
For experiment [4], the system named is Paracentrotus lividus. The experiment is described as follows: Microtubule destabilizing activity in Paracentrotus lividus embryo assessed as embryo spinning at 2 fold less effective threshold concentration after 15 mins to 20 hrs. The class given is functional, organism-based.
Experiment [5] concerns Paracentrotus lividus. The experiment is described as follows: Antimitotic activity against Paracentrotus lividus embryo assessed as cleavage arrest at 2 fold less effective threshold concentration after 2.5 to 6 hrs. The class given is functional, organism-based.
The test system of experiment [6] is Paracentrotus lividus. Briefly: Antimitotic activity against Paracentrotus lividus embryo assessed as cleavage alteration at 2 fold less effective threshold concentration after 2.5 to 6 hrs. It counts as functional, organism-based.

Activity calls are given as the source filed them.

For the molecule `COc1ccc2c(c1)NC1=C(C(=O)OC1)C2c1cc(OC)c(OC)c(OC)c1` (stereo not given), the values for the EC in experiment [1], in experiment [2] and in experiment [3] were 500 nM, 500 nM and 50 nM, respectively. In addition, the outcome in experiment [4], in experiment [5] and in experiment [6] was inactive.

In the case of `COc1ccc2c(c1)C(c1cc(OC)c(OC)c(OC)c1)C1=C(COC1=O)O2` (stereo not given), the EC in experiment [1] is listed as 2000 nM; in experiment [2], 5000 nM; in experiment [3] it was 100 nM. Also, the outcome in experiment [4], in experiment [5] and in experiment [6] was inactive.

Consider `COc1cc(OC)cc(C2C3=C(COC3=O)Oc3cc(OC)ccc32)c1` (stereo not given), for which the values for the EC in experiment [1], in experiment [2] and in experiment [3] were 5 nM, 50 nM and 1 nM, respectively. In addition, the outcome in experiment [4], in experiment [5] and in experiment [6] was inactive.

In the case of `COc1ccc2c(c1)NC1=C(C(=O)OC1)C2c1cc(OC)c2c(c1)OCCO2` (stereo not given), the EC in experiment [1] worked out at 50 nM; in experiment [2] it was 1000 nM; in experiment [3], 10 nM. For the same molecule, the result in experiment [4], in experiment [5] and in experiment [6] was inactive.

Consider `COc1cc2c(c(OC)c1OC)C(c1ccccc1)C1=C(COC1=O)O2` (stereo not given), for which the EC in experiment [1] was greater than 4000 nM; in experiment [2], greater than 4000 nM; in experiment [3], 2000 nM. Further, the outcome in experiment [4], in experiment [5] and in experiment [6] was inactive.
